A short description of data set [1]: Dimensions (size, PDI) of DNPs co-assembled from IAJDs and Luc-mRNA by DLS. The class given is physicochemical. The method, then:
Dynamic Light Scattering (DLS) for the DNPs was performed in buffer with a Malvern Instruments particle sizer (Zetasizer Nano S, Malvern Instruments, UK) equipped with 4 mW He—Ne laser 633 nm and avalanche photodiode positioned at […] to the beam and temperature-controlled cuvette holder. Instrument parameters were determined automatically along with measurement times.
Formulation of DNPs Containing mRNA-Luc: IAJDs were dissolved in ethanol with various initial concentrations (5-160 mg/mL). Nucleoside-modified mRNA encoding firefly luciferase (mRNA-Luc) was dissolved in water with various initial concentrations (1-4 mg/mL). 12.5 μL of mRNA solution was placed into a clean RNAs free eppendorf (1.5 mL) and mixed with 463 μL of citrate buffer (10 mM, pH 3.0)/acetate buffer (10 mM). For encapsulation of mRNA into IAJDs, 25 μL of IAJDs of the ethanol stock solution was rapidly injected into mRNA solution in citrate or acetate buffer followed by vortex for 5 seconds.
Dynamic Light Scattering (DLS) for the sizes and polydispersities of DNPs was performed on a Malvern Instruments particle sizer (Zetasizer Nano S, Malvern Instruments, UK) equipped with 4 mW He—Ne laser 633 nm and avalanche photodiode positioned at […] to the beam and temperature-controlled cuvette holder. Instrument parameters were determined automatically along with measurement times. Sample solution (0.4 mL) was placed in a semi-micro cuvette (1.6 mL, polystyrene, 10×10×45 mm, manufactured by Greiner Bio-One) and the measurements were performed at 23° C.
Formulation of DNPs obtained by co-assembly of IAJDs and Luc-mRNA was performed as follows. IAJDs were dissolved in ethanol with an initial concentration of 80 mg/mL. Nucleoside-modified mRNA encoding firefly luciferase (Luc-mRNA) was dissolved in UltraPure DNase/RNase-free distilled water with an initial concentration of 4.0 mg/mL. 12.5 μL of Luc-mRNA solution was placed into a clean RNAs free eppendorf (1.5 mL) and 463 μL acetate buffer (10 mM, pH 4.0) was added. Then, 25 μL of IAJD in the ethanol stock solution was rapidly injected into the Luc-mRNA solution in acetate buffer followed by vortex for 5 seconds.
Dynamic Light Scattering (DLS) for the dimensions (sizes and polydispersities) of DNPs was performed on a Malvern Instruments particle sizer (Zetasizer Nano S, Malvern Instruments, UK) equipped with 4 mW He—Ne laser 633 nm and avalanche photodiode positioned at 175° to the beam and temperature-controlled cuvette holder. Instrument parameters were set up automatically along with measurement times. Sample solution (c.a. 0.4 mL) was placed in a semi-micro cuvette (1.6 mL, polystyrene, 10×10×45 mm, Greiner Bio-One) and the measurements were performed at 23° C.
Formulation of DNPs Co-assembled from IAJDs and Luc-mRNA: nucleoside-modified mRNA encoding firefly luciferase (Luc-mRNA) was dissolved in UltraPure DNase/RNase-free distilled water with an initial concentration of 4.0 mg/mL. IAJD molecules were dissolved in ethanol with an initial concentration of 80 mg/mL. 12.5 μL of Luc-mRNA solution was taken and placed into a clean RNAs free eppendorf (1.5 mL). Then 463 μL of acetate buffer (10 mM, pH 4.0) was added. Afterwards, 25 μL of IAJD in the ethanol stock solution was taken and rapidly injected into the above Luc-mRNA solution in acetate buffer followed by vortex for 5 seconds.

Data set [2] in a line: pKa measurements of individual IAJD molecules by titration. The class given is physicochemical. The settings on record: ethanol saturated with NaCl, titrated with 0.1 M aqueous HCl, titration. How it is done: pKa measurements of individual IAJD Molecules was performed as follows. IAJD Molecules were first dissolved in ethanol (Sat. with NaCl) at a concentration of 1.5 mg/mL and the solution volume was 3 mL.
Then 0.1 M HCl solution was added to the above ethanol solution with an increment of 7.5 μL. The resulting pH after each addition of HCl solution was measured by an Thermo Scientific Orion Star A121 meter with Thermo Scientific Orion 8220BNWP pH probe. pKa was determined using the half equivalence point titration.

In the next data set the test system is spleen. In words: In vivo mRNA delivery, IVIS imaging of organs: spleen. Further details: species or system mice; key to Organs with luminescence: spleen: strong: Strong meant the luminescence intensity in that organ was relatively high, compared to other organs; weak: Weak meant the luminescence intensity in that organ was relatively low, compared to other organs. The conditions noted are these: for Organs with luminescence: spleen (weak/strong): Table 14; for Organs with luminescence: spleen: Table 17, mice, IVIS, 4-6 h after injection, intensity relative to other organs. The method, then:
The exposure time was 1 min.
Tissue luminescence signal was measured on the IVIS imaging system using an exposure time of 60 seconds using medium binning (binning=8) to ensure that the signal obtained was within operative detection range. […] Bioluminescence imaging was performed as described above.
Tissue luminescence signal was measured on the IVIS imaging system using a certain exposure time (60, 30 or 15 seconds) and medium binning (binning=8) to ensure that the signal obtained was within operative detection range.

Data set [3] is described as follows: Stability of DNPs by DLS after storage at 5° C. Details: key to Original size distribution type (DLS curve) / Size distribution type (DLS curve): U: DLS curve showed unimodal size distribution; B: DLS curve showed bimodal size distribution; M: DLS curve showed multimodal size distribution. The settings on record: for pH Sample: DNPs: IAJD 4.0 mg/mL + Luc-mRNA 0.1 mg/mL, injection in acetate buffer pH 4.00; for PDI / Size (d, nm) / Original size distribution type (DLS curve): IAJD 4.0 mg/mL + Luc-mRNA 0.1 mg/mL; for PDI / Size (d, nm): acetate buffer; for Original size distribution type (DLS curve): before storage, acetate buffer pH 4.00. The class given is physicochemical. The method, then: The stability of the DNPs as assayed by DLS. All the samples are prepared in acetate buffer. The stabilities of the constructs were ranked: Excellent (in bold)—the original sizes and distribution remains almost the same after storage; Good—the original relatively big sizes became smaller or broad size distribution became narrower; Not stable—the original relatively big sizes or broad size distribution remained almost the similar level, or the original relatively small sizes became bigger or narrow size distribution became broader.

The mark [4] stands for this setting: Table 12, DNPs, IAJD 4 mg/mL + Luc-mRNA 0.10 mg/mL, acetate buffer 10 mM pH 4.0.
Where [5] appears, read: Table 13, DNPs, IAJD 4 mg/mL + Luc-mRNA 0.10 mg/mL, acetate buffer pH 4.0.
Where [6] appears, read: Table 14, DNPs, IAJD 4 mg/mL + Luc-mRNA 0.10 mg/mL, acetate buffer pH 4.0.
Setting [7] is: Table 15, individual IAJD molecule.
[8] abbreviates: Table 16, DNPs from IAJD 4 mg/mL and Luc-mRNA 0.10 mg/mL by injection in acetate buffer (10 mM, pH 4.0).
[9] abbreviates: Table 17, DNPs used in vivo, IAJD 4 mg/mL, Luc-mRNA 0.10 mg/mL, acetate pH 4.0.

Each structure is given as a SMILES string. Marks after values point to notes of the source that are not given here.

This is an account of results in patent publication US20240252677A1, “ONE-COMPONENT DELIVERY SYSTEM FOR NUCLEIC ACIDS” (The Trustees of the University of Pennsylvania, priority 2021, published 2024).

The pKa is the pH at which an ionisable group is half protonated.

On to `CCCCCCCCCCCCOc1ccc(COC(=O)CCCN2CCN(C)CC2)cc1OCCCCCCCCCCCC` [IAJD 78, 3,4-Bis(dodecyloxy)benzyl 4-(4-methylpiperazin-1-yl)butanoate], for which the PDI in data set [1] (setting [4]), in data set [1] (setting [5]) and in data set [1] (setting [6]) was 1.000 in each case. The “Size (d, nm)” value in data set [1] (setting [4]), in data set [1] (setting [5]) and in data set [1] (setting [6]) was 629 nm throughout. In data set [2] (setting [7]), the pKa was 6.46. In addition, the “Organs with luminescence: spleen (weak/strong)” value (“Organs … (weak/strong)” below) with spleen (imaging 5 h after injection) was “spleen (weak)”.
For `CCCCCCCCCCCCOCC(COCCCCCCCCCCCC)(COCCCCCCCCCCCC)COC(=O)CCCN1CCN(C)CC1` [IAJD 82, 3-(Dodecyloxy)-2,2-bis((dodecyloxy)methyl)propyl 4-(4-methylpiperazin-1-yl)butanoate], the PDI in data set [1] (setting [4]), in data set [1] (setting [5]) and in data set [1] (setting [6]) was 0.144 throughout. For the same compound, the “Size (d, nm)” value in data set [1] (setting [4]), in data set [1] (setting [5]) and in data set [1] (setting [6]) was 162 nm each time. This compound also yielded a pKa in data set [2] (setting [7]) of 6.18. In addition, the “Organs … (weak/strong)” value in the data set on spleen (imaging 5 h after injection) is on record as “Spleen (strong)”.
Regarding `CCCCC(CC)COc1ccc(COC(=O)CCCN2CCN(C)CC2)cc1OCC(CC)CCCC` (stereo not shown) [IAJD 103, 3,4-Bis((2-ethylhexyl)oxy)benzyl 4-(4-methylpiperazin-1-yl)butanoate], the PDI in data set [1] (setting [4]), in data set [1] (setting [5]) and in data set [1] (setting [6]) was 0.275 each time. The “Size (d, nm)” value in data set [1] (setting [4]), in data set [1] (setting [5]) and in data set [1] (setting [6]) was 88 nm each time. Further, the pKa in data set [2] (setting [7]) is 6.23. Moreover, in the data set on spleen (imaging 6 h after injection), the “Organs … (weak/strong)” value is recorded as “spleen (weak)”.
Regarding `CCCCCCCCCCCCCCOc1cc(CNC(=O)CCCN2CCN(C)CC2)cc(OCCCCCCCCCCCCCC)c1` [IAJD 108, N-(3,5-bis(tetradecyloxy)benzyl)-4-(4-methylpiperazin-1-yl)butanamide], the PDI in data set [1] (setting [4]), in data set [1] (setting [5]) and in data set [1] (setting [6]) was 0.334 in each case. Moreover, the “Size (d, nm)” value in data set [1] (setting [4]), in data set [1] (setting [5]) and in data set [1] (setting [6]) was 214 nm throughout. In addition, the pKa in data set [2] (setting [7]) turned out to be 6.59. In the data set on spleen (imaging 6 h after injection), the “Organs … (weak/strong)” value was “spleen (weak)”.
With `CCCCCCCCCCCOc1cc(COC(=O)c2cc(OCCOCCOCCCC(=O)CCCN3CCCCC3)c(OCCOCCOCCOCc3ccccc3)c(OCCOCCOCCOC(=O)CCCN3CCCCC3)c2)cc(OCCCCCCCCCCC)c1` [IAJD 111], in data set [3], the “pH Sample” value was 4.84 and the “Original size distribution type (DLS curve)” value is “(U)”. Further, in data set [3] (after 75 days at 5° C.), the “Size distribution type (DLS curve)” value is recorded as “(U)”; the PDI was 0.227; the “Size (d, nm)” value is recorded as 96 nm. Besides, in data set [1] (setting [8]), the PDI is recorded as 0.232 and the “Size (d, nm)” value is reported as 99 nm. Further, in data set [1] (setting [9]), the PDI worked out at 0.232 and the “Size (d, nm)” value is 99 nm. Besides, the pKa in data set [2] (individual IAJD molecules) came out at 7.58. Moreover, in the data set with spleen, the “Organs with luminescence: spleen” value is recorded as “spleen (weak)”.
As to `CCCCCCCCCCCOc1cc(COC(=O)CCCN2CCN(CCO)CC2)cc(OCCCCCCCC)c1` [IAJD 113, 3-(Octyloxy)-5-(undecyloxy)benzyl 4-(4-(2-hydroxyethyl)piperazin-1-yl)butanoate], in data set [3], the “pH Sample” value amounted to 4.48 and the “Original size distribution type (DLS curve)” value is “(B)^b”. In data set [3] (after 70 days at 5° C.), the “Size distribution type (DLS curve)” value is recorded as “(B)”; the PDI is 0.365; the “Size (d, nm)” value came to 184 nm. Moreover, in data set [1] (setting [8]), the PDI is listed as 0.511 and the “Size (d, nm)” value turned out to be 181 nm. In data set [1] (setting [9]), the PDI is on record as 0.511 and the “Size (d, nm)” value came out at 181 nm. Moreover, the pKa in data set [2] (individual IAJD molecules) was 6.52. Also, in the data set with spleen, the “Organs with luminescence: spleen” value is on record as “Spleen (strong)”.
As for `CCCCCCCCCCCOc1cc(COC(=O)CCCN2CCN(CCO)CC2)cc(OCCCCCCCCCC)c1` [IAJD 115, 3-(Decyloxy)-5-(undecyloxy)benzyl 4-(4-(2-hydroxyethyl)piperazin-1-yl)butanoate], in data set [3], the “pH Sample” value is 4.44 and the “Original size distribution type (DLS curve)” value is “(U)”. For the same compound, in data set [3] (after 70 days at 5° C.), the “Size distribution type (DLS curve)” value is “(U)”; the PDI was 0.383; the “Size (d, nm)” value came to 134 nm. In addition, in data set [1] (setting [8]), the PDI worked out at 0.367 and the “Size (d, nm)” value was 123 nm. In data set [1] (setting [9]), the PDI is reported as 0.367 and the “Size (d, nm)” value came to 123 nm. Besides, the pKa in data set [2] (individual IAJD molecules) was 6.32. In the data set with spleen, the “Organs with luminescence: spleen” value is “spleen (strong)”.
With `CCCCCCCCCCCCCCCCOc1cc(COC(=O)CCCN2CCN(CCO)CC2)cc(OCCCCCCCCCCC)c1` [IAJD 120, 3-(Hexadecyloxy)-5-(undecyloxy)benzyl 4-(4-(2-hydroxyethyl)piperazin-1-yl)butanoate], in data set [3], the “pH Sample” value is given as 4.40 and the “Original size distribution type (DLS curve)” value is recorded as “(B)”. In data set [3] (after 70 days at 5° C.), the “Size distribution type (DLS curve)” value is listed as “(B)”; the PDI was 0.289; the “Size (d, nm)” value was determined as 177 nm. Besides, in data set [1] (setting [8]), the PDI worked out at 0.474 and the “Size (d, nm)” value was 212 nm. In addition, in data set [1] (setting [9]), the PDI was 0.474 and the “Size (d, nm)” value is 212 nm. Further, the pKa in data set [2] (individual IAJD molecules) came to 6.37. Moreover, the “Organs with luminescence: spleen” value in the data set on spleen is given as “Spleen (strong)”.
